What was measured:
Assay in all cases: KINOMEscan
Type in all cases: binding
Conditions in all cases: 1 uM
PIK3C2B = PIK3C2B (Homo sapiens (Human), UniProt O00750)
[1] = target: TYK2 (JH2domain-pseudokinase) (Homo sapiens (Human), UniProt P29597)
VRK2 = VRK2 (Homo sapiens (Human), UniProt Q86Y07)
ADCK4 = ADCK4 (Homo sapiens (Human), UniProt Q96D53)
HCK = HCK (Homo sapiens (Human), UniProt P08631)
TAOK2 = TAOK2 (Homo sapiens (Human), UniProt Q9UL54)
FGFR2 = FGFR2 (Homo sapiens (Human), UniProt P21802)
DRAK1 = DRAK1 (Homo sapiens (Human), UniProt Q9UEE5)
AURKB = AURKB (Homo sapiens (Human), UniProt Q96GD4)
AURKB, sequence (Q96GD4 whole entry): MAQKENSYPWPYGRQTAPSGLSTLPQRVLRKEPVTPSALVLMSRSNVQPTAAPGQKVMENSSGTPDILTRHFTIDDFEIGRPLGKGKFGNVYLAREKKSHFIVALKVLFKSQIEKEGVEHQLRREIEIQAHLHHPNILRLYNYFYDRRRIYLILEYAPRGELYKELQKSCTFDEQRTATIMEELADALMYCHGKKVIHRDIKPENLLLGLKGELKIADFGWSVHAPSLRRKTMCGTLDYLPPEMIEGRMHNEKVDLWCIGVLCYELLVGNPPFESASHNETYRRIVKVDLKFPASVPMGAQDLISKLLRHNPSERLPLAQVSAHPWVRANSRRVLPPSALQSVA

LOK = LOK (Homo sapiens (Human), UniProt O94804)
AMPK-alpha1 = AMPK-alpha1 (Homo sapiens (Human), UniProt Q13131)
TRPM6 = TRPM6 (Homo sapiens (Human), UniProt Q9BX84)
[2] = target: EGFR (L747-E749del, A750P) (Homo sapiens (Human), UniProt P00533, A750P/DEL747-749)
PIM2 = PIM2 (Homo sapiens (Human), UniProt Q9P1W9)
TTK = TTK (Homo sapiens (Human), UniProt P33981)
TTK, sequence (P33981 whole entry): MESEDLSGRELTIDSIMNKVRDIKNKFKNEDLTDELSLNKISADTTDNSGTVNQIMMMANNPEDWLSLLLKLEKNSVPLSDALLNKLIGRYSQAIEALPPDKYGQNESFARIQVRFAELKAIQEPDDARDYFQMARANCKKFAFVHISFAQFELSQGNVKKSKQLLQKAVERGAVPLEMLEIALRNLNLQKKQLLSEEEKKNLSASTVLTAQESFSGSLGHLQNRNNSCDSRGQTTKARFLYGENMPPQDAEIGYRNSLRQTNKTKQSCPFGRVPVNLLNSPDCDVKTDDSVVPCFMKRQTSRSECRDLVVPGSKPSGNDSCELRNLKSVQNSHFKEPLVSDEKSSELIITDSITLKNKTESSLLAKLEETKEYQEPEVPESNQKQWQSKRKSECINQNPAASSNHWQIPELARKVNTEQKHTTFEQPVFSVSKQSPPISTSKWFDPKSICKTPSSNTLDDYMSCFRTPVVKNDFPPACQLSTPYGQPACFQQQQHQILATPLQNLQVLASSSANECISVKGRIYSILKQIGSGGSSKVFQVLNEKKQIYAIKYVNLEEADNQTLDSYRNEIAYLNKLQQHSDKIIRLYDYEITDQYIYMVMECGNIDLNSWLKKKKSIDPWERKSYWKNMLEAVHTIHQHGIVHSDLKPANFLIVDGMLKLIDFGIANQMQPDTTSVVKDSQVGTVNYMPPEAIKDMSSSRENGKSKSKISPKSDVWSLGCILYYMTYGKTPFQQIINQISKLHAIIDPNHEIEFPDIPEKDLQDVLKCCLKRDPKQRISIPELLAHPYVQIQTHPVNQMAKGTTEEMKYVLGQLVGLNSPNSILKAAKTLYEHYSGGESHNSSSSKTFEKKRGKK

p38-delta = p38-delta (Homo sapiens (Human), UniProt O15264)
HIPK1 = HIPK1 (Homo sapiens (Human), UniProt Q86Z02)
TSSK1B = TSSK1B (Homo sapiens (Human), UniProt Q9BXA7)
MEK6 = MEK6 (Homo sapiens (Human), UniProt P52564)
MEK6, sequence (P52564 whole entry): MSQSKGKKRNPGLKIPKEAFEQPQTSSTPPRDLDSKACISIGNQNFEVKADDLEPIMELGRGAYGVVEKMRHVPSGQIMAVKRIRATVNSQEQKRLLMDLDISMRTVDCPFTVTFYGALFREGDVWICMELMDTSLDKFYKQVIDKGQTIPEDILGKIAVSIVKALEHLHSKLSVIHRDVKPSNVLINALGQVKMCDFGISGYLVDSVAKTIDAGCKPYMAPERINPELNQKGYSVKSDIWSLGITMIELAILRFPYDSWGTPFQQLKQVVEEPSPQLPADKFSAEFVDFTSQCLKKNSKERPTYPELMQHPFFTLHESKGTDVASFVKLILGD

NEK10 = NEK10 (Homo sapiens (Human), UniProt Q6ZWH5)
SGK2 = SGK2 (Homo sapiens (Human), UniProt Q9HBY8)
FLT1 = FLT1 (Homo sapiens (Human), UniProt P17948)
DYRK1B = DYRK1B (Homo sapiens (Human), UniProt Q9Y463)
TGFBR2 = TGFBR2 (Homo sapiens (Human), UniProt P37173)
TRKC = TRKC (Homo sapiens (Human), UniProt Q16288)
CDK4-cyclinD1 = CDK4-cyclinD1 (Homo sapiens (Human), UniProt P11802)
CTK = CTK (Homo sapiens (Human), UniProt P42679)
PAK6 = PAK6 (Homo sapiens (Human), UniProt Q9NQU5)
MAPKAPK5 = MAPKAPK5 (Homo sapiens (Human), UniProt Q8IW41)
MAPKAPK5, sequence (Q8IW41 whole entry, looked up): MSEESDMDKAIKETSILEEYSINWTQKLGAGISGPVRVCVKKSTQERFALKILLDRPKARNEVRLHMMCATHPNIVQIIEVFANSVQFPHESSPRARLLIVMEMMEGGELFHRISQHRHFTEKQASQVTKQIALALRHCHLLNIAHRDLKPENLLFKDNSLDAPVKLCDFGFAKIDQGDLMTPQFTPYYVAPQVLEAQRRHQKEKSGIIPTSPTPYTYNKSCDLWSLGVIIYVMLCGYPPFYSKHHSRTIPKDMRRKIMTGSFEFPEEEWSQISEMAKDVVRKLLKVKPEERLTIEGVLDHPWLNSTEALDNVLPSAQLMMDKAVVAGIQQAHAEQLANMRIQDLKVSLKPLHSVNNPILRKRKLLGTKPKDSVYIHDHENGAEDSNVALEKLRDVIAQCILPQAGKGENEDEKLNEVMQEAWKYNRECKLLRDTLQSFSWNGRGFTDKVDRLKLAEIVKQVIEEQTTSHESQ

MLCK = MLCK (Homo sapiens (Human), UniProt Q32MK0)
KIT (D816H) = KIT (D816H) (Homo sapiens (Human), UniProt P10721, D816H)
LIMK1 = LIMK1 (Homo sapiens (Human), UniProt P53667)
IGF1R = IGF1R (Homo sapiens (Human), UniProt P08069)
IGF1R, sequence (P08069 31-1367): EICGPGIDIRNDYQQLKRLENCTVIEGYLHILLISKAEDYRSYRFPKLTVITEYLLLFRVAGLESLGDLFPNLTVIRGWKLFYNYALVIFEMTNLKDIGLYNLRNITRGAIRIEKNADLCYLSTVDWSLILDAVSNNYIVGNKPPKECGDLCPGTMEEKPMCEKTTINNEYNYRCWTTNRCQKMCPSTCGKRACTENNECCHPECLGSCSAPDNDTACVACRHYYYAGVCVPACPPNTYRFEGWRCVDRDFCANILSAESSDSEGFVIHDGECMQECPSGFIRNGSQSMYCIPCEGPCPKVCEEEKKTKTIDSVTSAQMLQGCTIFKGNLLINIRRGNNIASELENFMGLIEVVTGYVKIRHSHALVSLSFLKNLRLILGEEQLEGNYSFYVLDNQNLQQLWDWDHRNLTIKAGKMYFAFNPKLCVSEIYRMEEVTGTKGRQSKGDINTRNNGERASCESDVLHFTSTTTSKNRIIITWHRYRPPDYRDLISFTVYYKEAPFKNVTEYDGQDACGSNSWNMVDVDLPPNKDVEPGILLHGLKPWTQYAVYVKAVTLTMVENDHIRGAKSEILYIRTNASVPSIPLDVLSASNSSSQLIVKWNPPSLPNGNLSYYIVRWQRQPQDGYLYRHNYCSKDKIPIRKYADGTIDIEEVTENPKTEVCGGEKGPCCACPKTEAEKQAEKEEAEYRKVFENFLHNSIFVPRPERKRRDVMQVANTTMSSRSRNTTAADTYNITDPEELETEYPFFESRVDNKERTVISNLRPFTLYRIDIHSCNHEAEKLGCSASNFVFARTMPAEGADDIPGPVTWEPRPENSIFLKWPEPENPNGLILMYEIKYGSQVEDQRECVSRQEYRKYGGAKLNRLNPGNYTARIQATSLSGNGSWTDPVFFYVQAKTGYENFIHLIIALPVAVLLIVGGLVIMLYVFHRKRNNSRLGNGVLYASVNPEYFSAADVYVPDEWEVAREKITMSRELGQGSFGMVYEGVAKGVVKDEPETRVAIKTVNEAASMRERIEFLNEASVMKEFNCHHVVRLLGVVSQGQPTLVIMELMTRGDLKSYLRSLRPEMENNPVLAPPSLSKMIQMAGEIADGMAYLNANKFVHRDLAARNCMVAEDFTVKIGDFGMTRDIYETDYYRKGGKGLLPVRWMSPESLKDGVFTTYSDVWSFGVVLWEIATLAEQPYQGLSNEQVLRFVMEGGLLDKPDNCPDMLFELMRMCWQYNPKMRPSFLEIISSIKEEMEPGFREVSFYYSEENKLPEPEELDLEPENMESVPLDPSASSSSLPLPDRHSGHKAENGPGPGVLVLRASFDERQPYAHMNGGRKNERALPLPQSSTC

EPHA6 = EPHA6 (Homo sapiens (Human), UniProt Q9UF33)
EGFR (G719S) = EGFR (G719S) (Homo sapiens (Human), UniProt P00533, G719S)
EGFR (G719S), sequence (P00533 25-1210 G719S): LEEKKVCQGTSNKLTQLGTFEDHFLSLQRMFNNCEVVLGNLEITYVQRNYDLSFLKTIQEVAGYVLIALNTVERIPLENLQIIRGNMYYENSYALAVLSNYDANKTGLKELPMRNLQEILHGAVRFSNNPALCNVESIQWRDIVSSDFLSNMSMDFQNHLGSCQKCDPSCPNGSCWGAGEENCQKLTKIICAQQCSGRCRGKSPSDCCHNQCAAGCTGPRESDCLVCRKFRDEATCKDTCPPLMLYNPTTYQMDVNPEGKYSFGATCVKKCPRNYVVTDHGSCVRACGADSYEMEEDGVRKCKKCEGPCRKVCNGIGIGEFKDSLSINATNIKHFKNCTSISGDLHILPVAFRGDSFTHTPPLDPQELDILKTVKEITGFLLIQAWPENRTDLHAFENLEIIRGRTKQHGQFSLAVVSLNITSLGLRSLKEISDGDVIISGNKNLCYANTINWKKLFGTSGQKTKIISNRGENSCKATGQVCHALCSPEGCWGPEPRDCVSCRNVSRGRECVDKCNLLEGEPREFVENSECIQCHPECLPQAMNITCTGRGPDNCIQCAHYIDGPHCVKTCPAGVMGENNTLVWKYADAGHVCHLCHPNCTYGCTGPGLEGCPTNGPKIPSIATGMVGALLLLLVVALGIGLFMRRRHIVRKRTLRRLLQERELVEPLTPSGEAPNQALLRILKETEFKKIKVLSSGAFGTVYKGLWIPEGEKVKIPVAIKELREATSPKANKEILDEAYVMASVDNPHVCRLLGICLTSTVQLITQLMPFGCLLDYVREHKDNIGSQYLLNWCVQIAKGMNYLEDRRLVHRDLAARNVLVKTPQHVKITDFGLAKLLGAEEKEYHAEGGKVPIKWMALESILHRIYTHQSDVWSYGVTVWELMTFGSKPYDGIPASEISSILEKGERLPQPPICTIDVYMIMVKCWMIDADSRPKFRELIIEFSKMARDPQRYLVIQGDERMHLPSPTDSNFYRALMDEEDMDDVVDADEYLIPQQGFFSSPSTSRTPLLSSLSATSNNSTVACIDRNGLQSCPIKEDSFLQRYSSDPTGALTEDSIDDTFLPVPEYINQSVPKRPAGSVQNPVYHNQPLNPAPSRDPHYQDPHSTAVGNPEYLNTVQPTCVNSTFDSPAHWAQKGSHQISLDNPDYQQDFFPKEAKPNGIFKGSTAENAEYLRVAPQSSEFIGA

PCTK2 = PCTK2 (Homo sapiens (Human), UniProt Q00537)
DMPK2 = DMPK2 (Homo sapiens (Human), UniProt Q6DT37)
TXK = TXK (Homo sapiens (Human), UniProt P42681)
CDK3 = CDK3 (Homo sapiens (Human), UniProt Q00526)
PFCDPK1 (P. falciparum) = PFCDPK1 (P. falciparum) (Plasmodium falciparum (isolate 3D7), UniProt P62344)
RIPK1 = RIPK1 (Homo sapiens (Human), UniProt Q13546)

HCK, sequence (P08631 whole entry): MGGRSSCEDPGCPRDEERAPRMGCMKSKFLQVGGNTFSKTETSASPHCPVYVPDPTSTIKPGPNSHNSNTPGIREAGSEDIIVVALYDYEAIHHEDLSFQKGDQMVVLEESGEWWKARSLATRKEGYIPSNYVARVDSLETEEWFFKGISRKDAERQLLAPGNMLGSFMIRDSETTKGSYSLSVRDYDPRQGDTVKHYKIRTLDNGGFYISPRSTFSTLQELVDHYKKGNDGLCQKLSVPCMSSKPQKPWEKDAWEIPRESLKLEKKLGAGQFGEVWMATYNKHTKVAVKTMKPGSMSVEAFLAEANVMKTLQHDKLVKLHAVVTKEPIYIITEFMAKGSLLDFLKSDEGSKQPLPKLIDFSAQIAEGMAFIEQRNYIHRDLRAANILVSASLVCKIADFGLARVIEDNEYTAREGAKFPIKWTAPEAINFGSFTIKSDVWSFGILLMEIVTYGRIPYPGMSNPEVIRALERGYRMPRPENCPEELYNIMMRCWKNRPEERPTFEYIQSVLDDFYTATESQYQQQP

SMILES: COc1ccc(N2C(=O)N(c3c(C)cccc3C)Cc3cnc(Nc4ccc(N5CCN(C)CC5)cc4)nc32)c(OC)c1 [HG-11-136-01]
- KINOMEscan PIK3C2B (PIK3C2B): 0.55
- KINOMEscan TYK2 (JH2domain-pseudokinase) [1]: 1.2
- KINOMEscan VRK2 (VRK2): 86
- KINOMEscan ADCK4 (ADCK4): 44
- KINOMEscan HCK (HCK): 0.05
- KINOMEscan TAOK2 (TAOK2): 0
- KINOMEscan FGFR2 (FGFR2): 0.8
- KINOMEscan DRAK1 (DRAK1): 96
- KINOMEscan AURKB (AURKB): 26
- KINOMEscan LOK (LOK): 0
- KINOMEscan AMPK-alpha1 (AMPK-alpha1): 33
- KINOMEscan TRPM6 (TRPM6): 69
- KINOMEscan EGFR (L747-E749del, A750P) [2]: 0.35
- KINOMEscan PIM2 (PIM2): 100
- KINOMEscan TTK (TTK): 47
- KINOMEscan p38-delta (p38-delta): 100
- KINOMEscan HIPK1 (HIPK1): 3.8
- KINOMEscan TSSK1B (TSSK1B): 50
- KINOMEscan MEK6 (MEK6): 30
- KINOMEscan NEK10 (NEK10): 9.6
- KINOMEscan SGK2 (SGK2): 76
- KINOMEscan FLT1 (FLT1): 5.2
- KINOMEscan DYRK1B (DYRK1B): 60
- KINOMEscan TGFBR2 (TGFBR2): 38
- KINOMEscan TRKC (TRKC): 71
- KINOMEscan CDK4-cyclinD1 (CDK4-cyclinD1): 9
- KINOMEscan CTK (CTK): 33
- KINOMEscan PAK6 (PAK6): 37
- KINOMEscan MAPKAPK5 (MAPKAPK5): 96
- KINOMEscan MLCK (MLCK): 100
- KINOMEscan KIT (D816H) (KIT (D816H)): 6
- KINOMEscan LIMK1 (LIMK1): 0.05
- KINOMEscan IGF1R (IGF1R): 100
- KINOMEscan EPHA6 (EPHA6): 0.2
- KINOMEscan EGFR (G719S) (EGFR (G719S)): 0.2
- KINOMEscan PCTK2 (PCTK2): 91
- KINOMEscan DMPK2 (DMPK2): 1.6
- KINOMEscan TXK (TXK): 0.25
- KINOMEscan CDK3 (CDK3): 100
- KINOMEscan PFCDPK1 (P. falciparum) (PFCDPK1 (P. falciparum)): 0.1
- KINOMEscan RIPK1 (RIPK1): 35

— patent publication US11725011B2, “Bicyclic urea kinase inhibitors and uses thereof” (The Broad Institute, Inc., priority 2016, dated 2023)
